Read-outs that look alike come from different tables or passages of the source.
What was measured:
[1] = Metabolite profiling of ADP in excreta, plasma and bile (LC-v.ARC/MS-IT-TOF); assay type: in vivo, swine; settings: for percentage of the individual metabolite compared with the total concentration of ADP-related: within 6 h after dosing; for Average percentage of ADP and its metabolites in total dose: Swine, single oral 5 mg/kg b.w. ^3H-ADP
Description: (§1) Animals (4 swine, 6 broilers, 6 carp, and 3 male and 3 female rats) were housed individually in clean, suspended wire-mesh metabolism cages, designed to separate the urine from the feces (carp were raised in individual aquaria). Each animal was weighed and assigned with a permanent identification number. A single dose of ^3 H-ADP (5 mg/kg b. w., 0.1 Ci/g) was administered via the oral gavage. Excreta were collected on ice at the pre-administration, in the period of 6, 12, and 24 h on day 1 d, and afterwards, intermittently in the period of 24 h up to 14 d. The piscine excreta were collected by changing and collecting raised water. The total volume or weight of each sample was measured and homogenized. The total radioactivity levels were determined through LSC for the recovery calculations. After the preparation, the samples were analyzed through LC/MS-IT-TOF with v. ARC radiometric detection (XenoBioticLaboratories, Inc.) for metabolite profiling. The pretreatment samples were used as controls to determine the background radioactivity or the endogenous nondrug-related ions observed within respective matrices or their extracts.
(§2) A total of 36 animals from each species (swine n = 24) were randomly assigned to six equal treatment groups and administered a single daily dose of ^3 H-ADP at 5 mg/kg b. w. (0.1 Ci/g) through oral gavage for 7 consecutive days. All the animals were housed on the basis of their group in the cages or aquaria throughout the whole study period. A group of animals was slaughtered through exsanguination under diethyl ether inhalation of anesthesia in the period of 6 h, 1, 3, 7, 14, and 21 d after the administration. The blood samples were immediately collected into the heparinized tubes and was centrifuged at 1920 × g at 4 °C for 10 min to obtain the plasma. The tissues from the heart, liver, spleen, lung, kidney, craw (broilers), stomach, intestine, fat, skin, muscle, thymus, pancreas, bile, bladder, hair (scale for carp), genital gland, adrenal glands, swim bladder (carp), brain, lymph, and bursa (broilers) were carefully excised and collected. The tissues were thoroughly rinsed with the deionized water to remove the residuary blood, blotted to dryness, and finally to perform the homogenization. In order to avoid cross-contamination the dissecting instruments were washed during the tissue procurements. The blank tissues were collected in order to provide control matrices. The total radioactivity levels in each sample were determined through LSC. The samples extracted from the plasma, bile, and tissues of the liver, kidney, muscle, and fat/skin were analyzed through LC/MS-IT-TOF and v. ARC radiometric detection for metabolite profiling. The blank samples were used as control to determine the background radioactivity or the endogenous nondrug-related ions observed within respective matrices or their extracts.
(§3) For metabolite profiling, the urine and feces samples from each animals were pooled proportionally to the excreted amount in each sampling period from 0 to 6 h, 6 h to 1 d, 1 to 3 d, 3 to 7 d, and 7 to 14 d post-dose, respectively. All samples were fully homogenized before the process. The pre-dose and blank samples served as the controls for determining the background radioactivity or the endogenous, nondrug-related ions observed within respective matrices or their extracts.
(§4) The urine samples (plasma, bile and raised water for carp) was subjected to solid-phase extraction with an Oasis MCX cartridge (3 mL, […]; Waters, Milford, MA, USA) for metabolite purification and enrichment. The pH value was adjusted to 2.8–3.2 by adding 1 M hydrochloric acid (HCl), and 2 mL of the sample was transferred into MCX cartridge, which was preconditioned with 3 mL of methanol and 3 mL of 0.1 mol/L HCl solution. The cartridge was washed with 3 mL of 0.1 mol/L HCl solution and was eluted with 5 mL of NH4OH/methanol (4:96, v:v). The effluent was concentrated to dryness under a stream of nitrogen at 40 °C. […]

[2] = as above; assay type: in vivo, broilers; settings: for percentage of the individual metabolite compared with the total concentration of ADP-related: within 6 h after dosing; for Average percentage of ADP and its metabolites in total dose: Broilers, Excreta, single oral 5 mg/kg b.w. ^3H-ADP
Description: as §1, §2, §3, §4

[3] = Concentration and elimination of ADP and its metabolites in liver, kidney, muscle, fat/skin after oral ^3H-ADP for 7 d; assay type: in vivo, broilers; settings: for concentration at 0.25 d / concentration at 1 d / concentration at 3 d / concentration at 7 d / concentration at 14 d: oral; for half-life: po
Description: as §2
The feces and tissues (2 g) were diluted with a mixture of methanol and chloroform (1:3, v:v; 2 mL/g homogenate). This procedure was carried out in a fume hood for the safety aspects. The pH value was adjusted to 9.0 with NH4OH. The mixture was vortexed and sonicated for 5 min and 10 min, respectively, and finally the samples were centrifuged at 7690 × g for 10 min. The supernatant was aspirated and then transferred into a new centrifuge tube. The obtained pellet was again subjected to the same process of vortex, ultrasonication, extraction, and centrifugation. The combined supernatant was concentrated under a stream of nitrogen in a water bath at 40 °C. The residue was reconstituted with 0.3 mL of methanol–water (1:9, v:v) before the injection into the LC-v. ARC/MS-IT-TOF system for analysis.
ADP and its metabolites in the prepared samples were determined with a v. ARC radiometric detector and a hybrid IT/TOF mass spectrometer connected to the HPLC system (Shimadzu Corp., Kyoto, Japan). The LC system was equipped with a solvent delivery pump (LC-20AD), an auto-sampler (SIL-20AC), a degasser (DGU-20 A 3), a photodiode array detector (SPD-M20A), a communication base module (CBM-20 A), and a column oven (CTO-20AC). The chromatographic separation was achieved by using an Agilent extend-C18 column (2.1 mm × 150 mm, 5 μm) with a gradient mobile phase of A (0.01% ammonia and 5 mM ammonium acetate in water) and B (methanol) at a flow rate of 0.2 mL/min. The column temperature was maintained at 35 °C. Various HPLC methods were performed because of the large number of different metabolites to be analyzed. For the porcine sample, method 1 started at 5% B and increased to 20% B over 35 min, then to 55% B by 60 min, followed by re-equilibration for another 10 min. For the remaining samples, method 2 started at 10% B and increased to 60% B over 30 min, subsequently was maintained at 60% B for an additional 10 min, and then changed to 90% B over 2 min and maintained for 2 min. Afterwards, a re-equilibration step (decreased to 10% B over 1 min and maintained at 10% B for additional 9 min) was followed. For each matrix, more than 98% of the radioactivity injected into the column was eluted during the running time of the gradient program. […]

[4] = broiler chicken, kidney, 5 mg/kg b.w.
[5] = broiler chicken, muscle, 5 mg/kg b.w.
[6] = broilers, muscle, 5 mg/kg b. w.
[7] = broiler kidney, after 5 mg/kg b. w. for 7 days, read-out: t1/2 of the individual compound (converted)
[8] = broiler liver, after 5 mg/kg b. w. for 7 days, read-out: t1/2 of the individual compound (converted)
[9] = tissues (liver, kidney, muscle, fat/skin), 5 mg/kg, broilers tissues, read-out: t1/2 of the individual compound, range over tissues

SMILES	percentage of the individual metabolite compared with the total concentration of ADP-related ([1]; Swine Feces) [%]	percentage of the individual metabolite compared with the total concentration of ADP-related ([1]; Swine Plasma) [%]	percentage of the individual metabolite compared with the total concentration of ADP-related ([1]; Swine Urine) [%]	Average percentage of ADP and its metabolites in total dose ([1]; Feces) [%]	Average percentage of ADP and its metabolites in total dose ([1]; Urine) [%]	percentage of the individual metabolite compared with the total concentration of ADP-related ([2]; Broilers Extra (excreta)) [%]	percentage of the individual metabolite compared with the total concentration of ADP-related ([2]; Broilers Plasma) [%]	Average percentage of ADP and its metabolites in total dose [2] [%]	concentration at 0.25 d [3, 4] [ng/g]	concentration at 1 d [3, 4] [ng/g]	concentration at 3 d [3, 4] [ng/g]	concentration at 0.25 d [3, 5] [ng/g]	concentration at 0.25 d ([3]; broilers, fat, 5 mg/kg b. w.) [ng/g]	concentration at 1 d ([3]; broilers, fat, 5 mg/kg b. w.) [ng/g]	concentration at 0.25 d ([3]; broilers, liver, 5 mg/kg b. w.) [ng/g]	concentration at 1 d ([3]; broilers, liver, 5 mg/kg b. w.) [ng/g]	concentration at 3 d ([3]; broilers, liver, 5 mg/kg b. w.) [ng/g]	concentration at 1 d [3, 6] [ng/g]	half-life [3, 7] [h]	half-life [3, 8] [h]	also measured
COc1cc(Cc2cnc(N)nc2N)cc(OC)c1N(C)C [A0, 2,4-Diamino-5-[4-(dimethylamino)-3,5-dimethoxybenzyl] pyrimidine]	89.1	53.0	42.3	16.0	33.4	63.2	51.6	64.3	15400 ± 2120	7240 ± 1020	1150 ± 440	530 ± 220	780 ± 240	180 ± 60	8040 ± 1400	1860 ± 580	1150 ± 440	330 ± 100	55.4	81.6	share of sample radioactivity ([1]; swine urine, period of 7–14 d (as the text reads), single oral dose): approximately 90%; concentration at 7 d [3, 4]: 170 ± 20 ng/g; concentration at 14 d [3, 4]: 40 ± 10 ng/g; share of the sample radioactivity in the detected tissues ([3]; broilers liver, kidney, muscle, fat, over the sampling times): more than 42%; concentration at 3 d ([3]; broilers, fat, 5 mg/kg b. w.): 140 ± 20 ng/g; concentration at 7 d ([3]; broilers, fat, 5 mg/kg b. w.): 60 ± 10 ng/g; concentration at 7 d ([3]; broilers, liver, 5 mg/kg b. w.): 580 ± 80 ng/g; concentration at 14 d ([3]; broilers, liver, 5 mg/kg b. w.): 130 ± 50 ng/g; concentration at 3 d [3, 6]: 220 ± 30 ng/g; concentration at 7 d [3, 6]: 30 ng/g; half-life ([3]; broiler fat, after 5 mg/kg b. w. for 7 days, read-out: t1/2 of the individual compound (converted)): 71.5 h; half-life ([3]; broiler muscle, after 5 mg/kg b. w. for 7 days, read-out: t1/2 of the individual compound (converted)): 40.1 h; half-life [3, 9]: 40.1 to 81.6 h
CNc1c(OC)cc(Cc2cnc(N)nc2N)cc1OC [A1, N-monodesmethyl-ADP]	9.7	23.7	11.4	2.9	13.3	12.8	23.4	13.7	6060 ± 970	2920 ± 530	370 ± 100	200 ± 80	300 ± 100	60 ± 20	3090 ± 680	740 ± 120	370 ± 100	90 ± 20	16.3	25.2	half-life [3, 9]: 16.3 to 25.2 h
COc1cc(Cc2cnc(N)nc2N)cc(OC)c1N [A2, N-didesmethyl-ADP]	1.1	15.0	11.8	0.5	11.3	6.5	12.6	4.8	1200 ± 80	550 ± 140	–	60 ± 20	30 ± 10	–	380 ± 50	190 ± 50	–	10	–	–	–

Source: article PMC4738305, “Metabolism and Disposition of Aditoprim in Swine, Broilers, Carp and Rats” (Scientific Reports, 2016)
